Reference: patent US20190136321A1, “USE OF TRANSLATIONAL PROFILING TO IDENTIFY TARGET MOLECULES FOR THERAPEUTIC TREATMENT” (The Regents of The University of California, priority 2013, published 2019)

What was measured:
Format in all cases: cell-based, human
[1] = tested on: 4EBP1, p70S6K1/2 and AKT; assay: Western blot of downstream mTOR effectors in PC3 cells; settings: 2.5 μM PP242, 3 hrs
Experimental: Cells were washed with PBS and lysed in 1× cell lysis buffer (Cell Signaling) for 15 min at 4° C. Lysates were sonicated briefly, clarified by centrifugation for 15 min at 14, 000 rpm, and supernatants were then collected. Protein concentration in the soluble fraction was determined by BCA protein assay (Thermo Scientific). A 4-20% Bis-Tris gradient gel (Invitrogen) was used to resolve 20 μg of protein and transferred to nitrocellulose membrane. The resulting membranes were blocked for 1 hr at room temperature with Odyssey blocking solution (LI-COR) and then incubated with primary antibodies at 4° C. overnight. The following day, the blots were washed 3 times, 10 min each in TBST, and incubated with IR-conjugated goat anti-rabbit IgG secondary antibody (IRDye 800 CW at 1:20,000; LI-COR) for 1 hour at room temperature. The blots were then washed, scanned, and specific proteins were detected using the LI-COR Odyssey infrared imager. […] Actin was used as a loading amount control.

[2] = tested on: SW620 cells; assay: Western blot of phosphorylation of protein translation components in SW620 cells; settings: PP242 10 μM
Experimental: SW620 cells (ATCC, passage 12) were seeded at about 75% confluence 24 hrs prior to drug treatment. […] About 6×10^6 cells/10 cm plate and about 1×10^6 cells/well of a 6-well plate were harvested for ribosome profiling and Western blot analysis, respectively, following drug treatment.
Cells were washed with PBS and lysed in 1× cell lysis buffer (Cell Signaling) for 15 min at 4° C. Lysates were sonicated briefly, clarified by centrifugation for 15 min at 14, 000 rpm, and supernatants were then collected. Protein concentration in the soluble fraction was determined by BCA protein assay (Thermo Scientific). A 4-20% Bis-Tris gradient gel (Invitrogen) was used to resolve 20 μg of protein and transferred to nitrocellulose membrane. The resulting membranes were blocked for 1 hr at room temperature with Odyssey blocking solution (LI-COR) and then incubated with primary antibodies at 4° C. overnight. The following day, the blots were washed 3 times, 10 min each in TBST, and incubated with IR-conjugated goat anti-rabbit IgG secondary antibody (IRDye 800 CW at 1:20,000; LI-COR) for 1 hour at room temperature. The blots were then washed, scanned, and specific proteins were detected using the LI-COR Odyssey infrared imager. The following antibodies from Cell Signaling were used at 1:1000 dilution: anti-phospho-eIF4E(Ser209)(#9741), anti-phospho-rpS6(Ser235/236)(#4858), anti-phospho-ERK1/2(Thr202/Tyr204)(#4370), anti-phospho-p70S6K(Thr421/Ser424)(#9204), anti-phospho-p90RSK(Thr359/Ser363)(#9344), anti-phospho-4EBP(Ser65), anti-phospho-pAKT(Ser473), anti-phospho-eIF4E(Ser209), and anti-β-actin (#4970). Actin was used as a loading amount control.

[3] = tested on: PC3 cells; assay: Ribosome profiling and RNA-seq of PC3 cells (translational efficiency, mRNA abundance);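 further: mRNA is RNA-seq average read density per codon over the coding sequence, translational efficiency is ribosome footprint over RNA-seq density, scaled so the median gene equals 1.0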
Experimental: Given the critical role for mTOR in prostate cancer, PC3 human prostate cancer cells, in which mTOR is constitutively hyperactivated, were used to delineate translationally controlled gene expression networks upon complete or partial mTOR inhibition. Ribosome profiling was optimized to assess quantitatively ribosome occupancy genome-wide in cancer cells.
Cells were subsequently treated with cycloheximide (100 μg ml^−1) and detergent lysis was performed in the dish. The lysate was treated with DNase and clarified, and a sample was taken for RNA-seq analysis. Lysates were subjected to ribosome footprinting by nuclease treatment. Ribosome-protected fragments were purified, and deep sequencing libraries were generated from these fragments, as well as from poly(A) mRNA purified from non-nuclease-treated lysates.
Ribosome footprint and RNA-seq sequencing reads were aligned against a library of transcripts from the UCSC Known Genes database GRCh37/hg19. The first 25 nucleotides of each read were aligned using Bowtie and this initial alignment was then extended to encompass the full fragment-derived portion of the sequencing read while excluding the linker sequence. Read density profiles were then constructed for the canonical transcript of each gene, using only reads with 0 or 1 total mismatches between the read sequence and the reference sequence, comprised of the transcript fragment followed by the linker sequence. Footprint reads were assigned to an A site nucleotide at position +15 to +17 of the alignment, based on the total fragment length; mRNA reads were assigned to the first nucleotide of the alignment. The average read density per codon was then computed for the coding sequence of each transcript, excluding the first 15 and last 5 codons, which can display atypical ribosome accumulation.
Average read density was used as a measure of mRNA abundance (RNA-seq reads) and of protein synthesis (ribosome profiling reads). For most analyses, genes were filtered to require at least 256 reads in the relevant RNA-seq samples. Translational efficiency was computed as the ratio of ribosome footprint read density to RNA-seq read density, scaled to normalize the translational efficiency of the median gene to 1.0 after excluding regulated genes (log2 fold-change ±1.5 after normalizing for the all-gene median). Changes in protein synthesis, mRNA abundance and translational efficiency were similarly computed as the ratio of read densities between different samples, normalized to give the median gene a ratio of 1.0. This normalization corrects for differences in the absolute number of sequencing reads obtained for different libraries.

CC(C)n1nc(-c2cc3cc(O)ccc3[nH]2)c2c(N)ncnc21 [PP242]
phosphorylation of S6K, S6 and 4EBP1 [1]: substantially inhibited | phosphorylation of 4EBP [2]: some phosphorylation of 4EBP was observed | TrlEff, ACD ([3]; PP242 2.5 μM, 3-hour treatment): −1.02 | TrlEff, C17orf28 ([3]; PP242 2.5 μM, 3-hour treatment): −0.20 | TrlEff, CCNA1 ([3]; PP242 2.5 μM, 3-hour treatment): 0.66 | TrlEff, DDX51 ([3]; PP242 2.5 μM, 3-hour treatment): −0.51 | TrlEff, DGCR2 ([3]; PP242 2.5 μM, 3-hour treatment): 0.02 | TrlEff, EEF1A1 ([3]; PP242 2.5 μM, 3-hour treatment): −3.53 | TrlEff, GTPBP3 ([3]; PP242 2.5 μM, 3-hour treatment): −0.83 | TrlEff, MAPK6 ([3]; PP242 2.5 μM, 3-hour treatment): −0.29 | TrlEff, MAPKAPK2 ([3]; PP242 2.5 μM, 3-hour treatment): 0.92 | TrlEff, NFATC21P ([3]; PP242 2.5 μM, 3-hour treatment): 0.35 | TrlEff, NR2F1 ([3]; PP242 2.5 μM, 3-hour treatment): −0.09 | TrlEff, PRKD3 ([3]; PP242 2.5 μM, 3-hour treatment): 0.68 | TrlEff, RBPJ ([3]; PP242 2.5 μM, 3-hour treatment): −0.03 | TrlEff, RPL28 ([3]; PP242 2.5 μM, 3-hour treatment): −3.48 | TrlEff, RPL39 ([3]; PP242 2.5 μM, 3-hour treatment): −2.53 | TrlEff, RPS20 ([3]; PP242 2.5 μM, 3-hour treatment): −2.78 | TrlEff, RPS27 ([3]; PP242 2.5 μM, 3-hour treatment): −3.35 | TrlEff, SDCCAG10 ([3]; PP242 2.5 μM, 3-hour treatment): 0.23 | TrlEff, UBTD2 ([3]; PP242 2.5 μM, 3-hour treatment): 0.27 | TrlEff, UCHL5 ([3]; PP242 2.5 μM, 3-hour treatment): 0.40 | TrlEff, VHL ([3]; PP242 2.5 μM, 3-hour treatment): 0.52 | mRNA, ACD ([3]; PP242 2.5 μM, 3-hour treatment): 0.20 | mRNA, ARID5B ([3]; PP242 2.5 μM, 3-hour treatment): 1.93 log^2 fold change | mRNA, BCL6 ([3]; PP242 2.5 μM, 3-hour treatment): 1.59 log^2 fold change | mRNA, BRIX1 ([3]; PP242 2.5 μM, 3-hour treatment): −1.51 log^2 fold change | mRNA, C17orf28 ([3]; PP242 2.5 μM, 3-hour treatment): 0.21 | mRNA, CCNA1 ([3]; PP242 2.5 μM, 3-hour treatment): −0.33 | mRNA, CTGF ([3]; PP242 2.5 μM, 3-hour treatment): 1.80 log^2 fold change | mRNA, CYR61 ([3]; PP242 2.5 μM, 3-hour treatment): 1.47 log^2 fold change | mRNA, DDX51 ([3]; PP242 2.5 μM, 3-hour treatment): 0.17 | mRNA, DGCR2 ([3]; PP242 2.5 μM, 3-hour treatment): 0.05 | mRNA, EEF1A1 ([3]; PP242 2.5 μM, 3-hour treatment): 0.29 | mRNA, FGFBP1 ([3]; PP242 2.5 μM, 3-hour treatment): −1.75 log^2 fold change | mRNA, FOXA1 ([3]; PP242 2.5 μM, 3-hour treatment): 1.45 log^2 fold change | mRNA, GDF15 ([3]; PP242 2.5 μM, 3-hour treatment): 3.02 log^2 fold change | mRNA, GTPBP3 ([3]; PP242 2.5 μM, 3-hour treatment): 0.15 | mRNA, HBP1 ([3]; PP242 2.5 μM, 3-hour treatment): 1.88 log^2 fold change | mRNA, KLF6 ([3]; PP242 2.5 μM, 3-hour treatment): 1.75 log^2 fold change | mRNA, MAPK6 ([3]; PP242 2.5 μM, 3-hour treatment): 0.10 | mRNA, MAPKAPK2 ([3]; PP242 2.5 μM, 3-hour treatment): −0.22 | mRNA, MT2A ([3]; PP242 2.5 μM, 3-hour treatment): 1.47 log^2 fold change | mRNA, NFATC21P ([3]; PP242 2.5 μM, 3-hour treatment): 0.08 | mRNA, NR2F1 ([3]; PP242 2.5 μM, 3-hour treatment): 0.87 | mRNA, PLAU ([3]; PP242 2.5 μM, 3-hour treatment): 2.04 log^2 fold change | mRNA, PRKD3 ([3]; PP242 2.5 μM, 3-hour treatment): −0.46 | mRNA, RBPJ ([3]; PP242 2.5 μM, 3-hour treatment): 0.17 | mRNA, RND3 ([3]; PP242 2.5 μM, 3-hour treatment): 1.78 log^2 fold change | mRNA, RPL28 ([3]; PP242 2.5 μM, 3-hour treatment): 0.55 | mRNA, RPL39 ([3]; PP242 2.5 μM, 3-hour treatment): −0.42 | mRNA, RPS20 ([3]; PP242 2.5 μM, 3-hour treatment): −0.10 | mRNA, RPS27 ([3]; PP242 2.5 μM, 3-hour treatment): 0.06 | mRNA, SDCCAG10 ([3]; PP242 2.5 μM, 3-hour treatment): −0.37 | mRNA, SOX4 ([3]; PP242 2.5 μM, 3-hour treatment): 1.51 log^2 fold change | mRNA, UBTD2 ([3]; PP242 2.5 μM, 3-hour treatment): 0.25 | mRNA, UCHL5 ([3]; PP242 2.5 μM, 3-hour treatment): −0.51 | mRNA, VHL ([3]; PP242 2.5 μM, 3-hour treatment): 0.43 | TrlEff ([3]; gene ACTG1): −1.40 | mRNA ([3]; gene ACTG1): 0.28 | mRNA ([3]; gene AGRN): 0.50 | mRNA ([3]; gene ALKBH7): 0.51 | mRNA ([3]; gene AP2A1): 0.42 | mRNA ([3]; gene ARD1A): 0.03 | mRNA ([3]; gene ATP5G2): 0.17 | mRNA ([3]; gene C21orf66): −0.31 | mRNA ([3]; gene CCNI): 0.24 | mRNA ([3]; gene CD44): 0.43 | mRNA ([3]; gene CIRBP): 0.54 | mRNA ([3]; gene CLPTM1): 0.41 | mRNA ([3]; gene COL6A2): 0.57 | TrlEff ([3]; gene CRTAP): −2.50 | mRNA ([3]; gene CRTAP): 0.33 | mRNA ([3]; gene ECSIT): 0.26 | mRNA ([3]; gene EEF1A2): 0.40 | TrlEff ([3]; gene EEF1B2): −1.70 | mRNA ([3]; gene EEF1D): 0.35 | mRNA ([3]; gene EEF1G): 0.15 | TrlEff ([3]; gene EEF2): −3.60 | mRNA ([3]; gene EIF3H): 0.09 | mRNA ([3]; gene EIF3L): 0.21 | mRNA ([3]; gene EIF4B): 0.61 | TrlEff ([3]; gene EVPL): −0.79 | mRNA ([3]; gene EVPL): 0.38 | mRNA ([3]; gene FAM83H): 0.33 | mRNA ([3]; gene FAM128B): 0.43 | mRNA ([3]; gene FASN): 0.30 | TrlEff ([3]; gene GAPDH): −1.90 | mRNA ([3]; gene GLTSCR2): 0.70 | mRNA ([3]; gene GNB2L1): 0.27 | mRNA ([3]; gene HNRNPA1): 0.27 | mRNA ([3]; gene HSPA8): −0.40 | mRNA ([3]; gene IMPDH2): 0.21 | TrlEff ([3]; gene LAMA5): −0.94 | mRNA ([3]; gene LAMA5): 0.40 | mRNA ([3]; gene LMF2): 0.62 | mRNA ([3]; gene MTA1): 0.21 | TrlEff ([3]; gene NCLN): −0.76 | mRNA ([3]; gene NCLN): 0.29 | mRNA ([3]; gene PABPC1): 0.16 | mRNA ([3]; gene PABPC4): 0.40 | mRNA ([3]; gene PACS1): 0.45 | mRNA ([3]; gene PFDN5): 0.04 | mRNA ([3]; gene PGLS): 0.21 | mRNA ([3]; gene PGM1): 0.23 | TrlEff ([3]; gene PNKP): −0.79 | mRNA ([3]; gene PNKP): 0.33 | TrlEff ([3]; gene PTGES2): −0.65 | mRNA ([3]; gene PTGES2): 0.17 | mRNA ([3]; gene RABGGTB): 0.20 | mRNA ([3]; gene RPL3): 0.22 | TrlEff ([3]; gene RPL4): −1.50 | mRNA ([3]; gene RPL4): 0.10 | mRNA ([3]; gene RPL7): 0.01 | TrlEff ([3]; gene RPL7A): −2.30 | mRNA ([3]; gene RPL7A): 0.15 | mRNA ([3]; gene RPL9): −0.08 | mRNA ([3]; gene RPL10): 0.25 | mRNA ([3]; gene RPL10A): 0.14 | mRNA ([3]; gene RPL11): 0.14 | mRNA ([3]; gene RPL12): 0.12 | mRNA ([3]; gene RPL13): 0.26 | TrlEff ([3]; gene RPL13A): −3.10 | mRNA ([3]; gene RPL13A): 0.30 | TrlEff ([3]; gene RPL15): −1.20 | mRNA ([3]; gene RPL15): 0.19 | TrlEff ([3]; gene RPL17): −1.80 | mRNA ([3]; gene RPL18A): 0.23 | mRNA ([3]; gene RPL19): 0.11 | mRNA ([3]; gene RPL21): −0.04 | mRNA ([3]; gene RPL22): 0.00 | TrlEff ([3]; gene RPL22L1): −1.90 | mRNA ([3]; gene RPL24): 0.00 | TrlEff ([3]; gene RPL26): −2.00 | mRNA ([3]; gene RPL26): 0.02 | mRNA ([3]; gene RPL27): −0.13 | mRNA ([3]; gene RPL27A): 0.07 | mRNA ([3]; gene RPL28): 0.22 | TrlEff ([3]; gene RPL31): −2.10 | mRNA ([3]; gene RPL31): 0.05 | mRNA ([3]; gene RPL32): 0.11 | mRNA ([3]; gene RPL34): 0.04 | mRNA ([3]; gene RPL36A): −0.01 | mRNA ([3]; gene RPL37A): 0.01 | mRNA ([3]; gene RPL39): −0.15 | mRNA ([3]; gene RPL41): −0.01 | mRNA ([3]; gene RPLP0): 0.12 | mRNA ([3]; gene RPLP1): 0.12 | TrlEff ([3]; gene RPLP2): −2.10 | mRNA ([3]; gene RPLP2): 0.14 | mRNA ([3]; gene RPS2): 0.20 | mRNA ([3]; gene RPS3): 0.24 | mRNA ([3]; gene RPS3A): −0.06 | mRNA ([3]; gene RPS4X): 0.12 | mRNA ([3]; gene RPS5): 0.23 | mRNA ([3]; gene RPS6): −0.02 | TrlEff ([3]; gene RPS7): -1151 | mRNA ([3]; gene RPS7): −0.04 | mRNA ([3]; gene RPS9): 0.34 | TrlEff ([3]; gene RPS12): −3.00 | mRNA ([3]; gene RPS12): 0.04 | mRNA ([3]; gene RPS13): −0.08 | TrlEff ([3]; gene RPS14): −1.50 | mRNA ([3]; gene RPS14): 0.16 | mRNA ([3]; gene RPS15): 0.21 | mRNA ([3]; gene RPS15A): 0.07 | mRNA ([3]; gene RPS19): 0.23 | mRNA ([3]; gene RPS20): −0.01 | mRNA ([3]; gene RPS21): 0.09 | mRNA ([3]; gene RPS25): −0.04 | mRNA ([3]; gene RPS27): 0.07 | mRNA ([3]; gene RPS27A): −0.04 | mRNA ([3]; gene RPS28): 0.28 | mRNA ([3]; gene RPS29): 0.11 | mRNA ([3]; gene SLC19A1): 0.10 | TrlEff ([3]; gene SLC25A5): −1.80 | mRNA ([3]; gene TKT): 0.33 | mRNA ([3]; gene TSC2): 0.21 | mRNA ([3]; gene UBA52): 0.18 | mRNA ([3]; gene VIM): 0.67 | TrlEff ([3]; gene YB1): −2.30 | mRNA ([3]; gene YB1): 0.24
